From patent US11046716B2, “Beta-lactamase inhibitors” (priority 2015, dated 2021)

How the values were obtained:
VIM-2 = molecular target: T1, VIM-2 (Escherichia coli, UniProt Q5U7L7); assay: β-lactamase enzyme inhibition assay, VIM-2 (nitrocefin substrate); type: biochemical; settings: Class B; nitrocefin substrate, 486 nm; read-out: VIM-2
T1 construct: made in house; host or cells: E. coli BL21(DE3)
In short: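 Nitrocefin hydrolysis, read at 486 nm over 10 min, served as the measure of VIM-2 activity. The enzyme had been incubated with compound for 15 min at 37 °C before 100 μM substrate was added, and IC50 values were fitted from percent inhibition of the initial rate.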

SHV-5 = molecular target: T2, SHV-5 (Klebsiella pneumoniae, UniProt P0A3M1); assay: β-lactamase enzyme inhibition assay, SHV-5 (cefotaxime substrate); type: biochemical
T2 construct: made in house; host or cells: E. coli BL21(DE3)
T2 sequence (P0A3M1 22-286): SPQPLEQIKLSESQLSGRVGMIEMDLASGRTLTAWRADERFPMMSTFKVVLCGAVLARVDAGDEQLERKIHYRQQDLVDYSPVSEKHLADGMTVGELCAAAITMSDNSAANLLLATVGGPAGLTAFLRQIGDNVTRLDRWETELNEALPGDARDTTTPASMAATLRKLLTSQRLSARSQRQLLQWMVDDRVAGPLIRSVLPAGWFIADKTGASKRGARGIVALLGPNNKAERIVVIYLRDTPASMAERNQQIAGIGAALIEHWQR
In short: (§1)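 Native untagged β-lactamases were expressed in E. coli BL21(DE3), then purified by cation exchange and gel filtration. Enzyme was preincubated with inhibitor for 15 min at 37 °C before substrate was added. Imipenem (A300) served KPC-2 and cefotaxime (A260) served SHV-5. IC50 was taken from initial hydrolysis rates relative to no-inhibitor controls.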

[1] = tested on: E. coli expressing the Class A Extended Spectrum Beta-Lactamase (ESBL) CTX-M-15; assay: Broth microdilution MIC assay with ceftazidime, E. coli CTX-M-15; type: cell-based; settings: Fixed CAZ (ceftazidime) 4 μg/mL; E. coli ESBL4 CTX-M-15
In short: (§2)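 Visual MIC readout of the test compound after 16-20 hours at 37° C, measured in the presence of a constant 4 μg/ml β-lactam. Compound concentrations spanned 16 to 0.125 μg/mL in 2-fold steps in cation-adjusted Mueller Hinton broth.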

[2] = tested on: P. aeruginosa expressing the Class B carbapenemase VIM-2; assay: Broth microdilution MIC assay with meropenem, P. aeruginosa VIM-2; type: cell-based; settings: Fixed Mero (meropenem) 4 μg/mL; P. aerug. 2775 VIM-2
In short: as §2

OXA-48 = OXA-48 (UniProt Q6XEC0); assay: β-lactamase enzyme inhibition assay, Class D oxacillinase; type: biochemical; settings: read-out: OXA-48
AmpC = molecular target: T3, AmpC (Enterobacter cloacae, UniProt P05364); assay: β-lactamase enzyme inhibition assay, p99 AmpC (nitrocefin substrate); type: biochemical
T3 construct: made in house; host or cells: E. coli BL21(DE3)
T3 sequence (P05364 21-381): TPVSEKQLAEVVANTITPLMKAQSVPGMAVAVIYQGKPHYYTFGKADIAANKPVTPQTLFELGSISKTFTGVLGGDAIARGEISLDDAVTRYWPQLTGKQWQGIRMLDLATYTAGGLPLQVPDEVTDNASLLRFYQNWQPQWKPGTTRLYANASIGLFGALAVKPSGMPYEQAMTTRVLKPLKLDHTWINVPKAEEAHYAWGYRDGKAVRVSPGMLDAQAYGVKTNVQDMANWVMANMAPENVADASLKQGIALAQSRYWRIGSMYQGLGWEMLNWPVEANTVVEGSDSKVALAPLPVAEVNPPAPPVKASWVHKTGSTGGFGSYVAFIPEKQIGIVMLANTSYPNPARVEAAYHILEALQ
In short: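 Native untagged β-lactamases were expressed in E. coli BL21(DE3), then purified by cation exchange and gel filtration. Enzyme was preincubated with inhibitor for 15 min at 37 °C before substrate was added. IC50 was taken from initial hydrolysis rates relative to no-inhibitor controls.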

KPC-2 = molecular target: T4, KPC-2 (Klebsiella pneumoniae, UniProt Q9F663); assay: β-lactamase enzyme inhibition assay, KPC-2 (imipenem substrate); type: biochemical; settings: Class A; imipenem substrate, 300 nm; read-out: KPC-2
T4 construct: made in house; host or cells: E. coli BL21(DE3)
T4 sequence (Q9F663 25-293, looked up): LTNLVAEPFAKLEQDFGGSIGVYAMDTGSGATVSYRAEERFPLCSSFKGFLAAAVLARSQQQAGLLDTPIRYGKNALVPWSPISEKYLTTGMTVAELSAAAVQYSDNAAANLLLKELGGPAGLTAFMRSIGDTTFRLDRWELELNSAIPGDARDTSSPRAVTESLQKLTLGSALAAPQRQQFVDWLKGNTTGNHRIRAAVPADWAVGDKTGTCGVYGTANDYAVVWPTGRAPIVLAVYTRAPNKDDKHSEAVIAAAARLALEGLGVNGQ
In short: as §1

[3] = tested on: E. cloacae expressing the Class C P99; assay: Broth microdilution MIC assay with ceftazidime, E. cloacae P99; type: cell-based; settings: Fixed CAZ (ceftazidime) 4 μg/mL; E. cl. 144200 p99 AmpC
In short: as §2

[4] = tested on: K. pneumoniae producing the Class D carbapenemase OXA-48; assay: Broth microdilution MIC assay with meropenem, K. pneumoniae OXA-48; type: cell-based; settings: Fixed Mero (meropenem) 4 μg/mL; K. p. 11978 OXA-48
In short: as §2

[5] = tested on: K. pneumoniae expressing the Class A carbapenemase KPC-2; assay: Broth microdilution MIC assay with meropenem, K. pneumoniae KPC-2; type: cell-based; settings: Fixed Mero (meropenem) 4 μg/mL; K. p. 156319 KPC-3
In short: as §2

[6] = tested on: K. pneumoniae expressing the class A carbapenemase KPC-2 and the class B carbapenemase VIM-4; assay: Broth microdilution MIC assay with meropenem, K. pneumoniae KPC-2 and VIM-4; type: cell-based; settings: Fixed Mero (meropenem) 4 μg/mL; K. p. A-1797 KPC-2 VIM-4
In short: as §2

SMILES | IC50 (VIM-2) [nM] | IC50 (SHV-5) [nM] | MIC (μg/mL) of Exemplary Compounds in presence of fixed β-lactams: E. coli ESBL4 CTX-M-15 [1] | MIC (μg/mL) of Exemplary Compounds in presence of fixed β-lactams: P. aerug. 2775 VIM-2 [2] | IC50 (OXA-48) [nM] | IC50 (AmpC) [nM] | IC50 (KPC-2) [nM] | MIC (μg/mL) of Exemplary Compounds in presence of fixed β-lactams: E. cl. 144200 p99 AmpC [3] | MIC (μg/mL) of Exemplary Compounds in presence of fixed β-lactams: K. p. 11978 OXA-48 [4] | MIC (μg/mL) of Exemplary Compounds in presence of fixed β-lactams: K. p. 156319 KPC-3 [5] | MIC (μg/mL) of Exemplary Compounds in presence of fixed β-lactams: K. p. A-1797 KPC-2 VIM-4 [6]
CC(C)(CN)CNC(=O)c1cn(CC(=O)N[C@H]2Cc3cccc(C(=O)O)c3OB2O)nn1 [Example 86, (R)-3-(2-(4-((3-amino-2,2-dimethylpropyl)carbamoyl)-1H-1,2,3-triazol-1-yl)acetamido)-2-hydroxy-3,4-dihydro-2H-benzo[e][1,2]oxaborinine-8-carboxylic acid] | < 100 | 100 to 1000 | C (C represents an MIC of <1 μg/mL) | C (C represents an MIC of <1 μg/mL) | 1000 to 10000 | 100 to 1000 | < 100 | C (C represents an MIC of <1 μg/mL) | B (B represents an MIC between 1 and 16 μg/mL inclusive) | C (C represents an MIC of <1 μg/mL) | C (C represents an MIC of <1 μg/mL)
NCc1nnc(CC(=O)N[C@H]2Cc3cccc(C(=O)O)c3OB2O)[nH]1 [Example 23, (R)-3-(2-(5-(aminomethyl)-4H-1,2,4-triazol-3-yl)acetamido)-2-hydroxy-3,4-dihydro-2H-benzo[e][1,2]oxaborinine-8-carboxylic acid] | 100 to 1000 | < 100 | C (C represents an MIC of <1 μg/mL) | C (C represents an MIC of <1 μg/mL) | 100 to 1000 | < 100 | < 100 | C (C represents an MIC of <1 μg/mL) | B (B represents an MIC between 1 and 16 μg/mL inclusive) | C (C represents an MIC of <1 μg/mL) | B (B represents an MIC between 1 and 16 μg/mL inclusive)
CCN(CC)Cc1cn(CC(=O)N[C@H]2Cc3cccc(C(=O)O)c3OB2O)nn1 [Example 27, (R)-3-(2-(4-((diethylamino)methyl)-1H-1,2,3-triazol-1-yl)acetamido)-2-hydroxy-3,4-dihydro-2H-benzo[e][1,2]oxaborinine-8-carboxylic acid] | 100 to 1000 | < 100 | C (C represents an MIC of <1 μg/mL) | B (B represents an MIC between 1 and 16 μg/mL inclusive) | 100 to 1000 | < 100 | < 100 | C (C represents an MIC of <1 μg/mL) | B (B represents an MIC between 1 and 16 μg/mL inclusive) | B (B represents an MIC between 1 and 16 μg/mL inclusive) | B (B represents an MIC between 1 and 16 μg/mL inclusive)
CNC(=O)c1cn(CC(=O)N[C@H]2Cc3cccc(C(=O)O)c3OB2O)nn1 [Example 79, (R)-2-hydroxy-3-(2-(4-(methylcarbamoyl)-1H-1,2,3-triazol-1-yl)acetamido)-3,4-dihydro-2H-benzo[e][1,2]oxaborinine-8-carboxylic acid] | 100 to 1000 | < 100 | C (C represents an MIC of <1 μg/mL) | C (C represents an MIC of <1 μg/mL) | 100 to 1000 | < 100 | < 100 | C (C represents an MIC of <1 μg/mL) | C (C represents an MIC of <1 μg/mL) | C (C represents an MIC of <1 μg/mL) | B (B represents an MIC between 1 and 16 μg/mL inclusive)
Nc1cc(-c2cn(CC(=O)N[C@H]3Cc4cccc(C(=O)O)c4OB3O)nn2)ccn1 [Example 62, (R)-3-(2-(4-(2-aminopyridin-4-yl)-1H-1,2,3-triazol-1-yl)acetamido)-2-hydroxy-3,4-dihydro-2H-benzo[e][1,2]oxaborinine-8-carboxylic acid] | 100 to 1000 | < 100 | C (C represents an MIC of <1 μg/mL) | B (B represents an MIC between 1 and 16 μg/mL inclusive) | < 100 | < 100 | < 100 | C (C represents an MIC of <1 μg/mL) | B (B represents an MIC between 1 and 16 μg/mL inclusive) | C (C represents an MIC of <1 μg/mL) | A (A represents an MIC>16 μg/mL)
N=C(N)NCCn1nnnc1CC(=O)N[C@H]1Cc2cccc(C(=O)O)c2OB1O [Example 47, (R)-3-(2-(1-(2-guanidinoethyl)-1H-tetrazol-5-yl)acetamido)-2-hydroxy-3,4-dihydro-2H-benzo[e][1,2]oxaborinine-8-carboxylic acid] | < 100 | < 100 | C (C represents an MIC of <1 μg/mL) | C (C represents an MIC of <1 μg/mL) | 1000 to 10000 | < 100 | < 100 | C (C represents an MIC of <1 μg/mL) | C (C represents an MIC of <1 μg/mL) | C (C represents an MIC of <1 μg/mL) | B (B represents an MIC between 1 and 16 μg/mL inclusive)
